Calls of active or inactive are those of the source. How the calls were made is not given here.
These compounds were tested against Core antigen (Hepatitis B virus) (UniProt Q03732) (assay: Inhibition of Hepatitis B virus capsid formation at 100 uM treated during cell-free wild type HBV Cp synthesis using wheat germ lysates and HBV Cp RNA by Native capsid assay based western blot analysis).
Assay type: subcellular

Sequence of Core antigen (Hepatitis B virus) (Q03732 as listed by the source): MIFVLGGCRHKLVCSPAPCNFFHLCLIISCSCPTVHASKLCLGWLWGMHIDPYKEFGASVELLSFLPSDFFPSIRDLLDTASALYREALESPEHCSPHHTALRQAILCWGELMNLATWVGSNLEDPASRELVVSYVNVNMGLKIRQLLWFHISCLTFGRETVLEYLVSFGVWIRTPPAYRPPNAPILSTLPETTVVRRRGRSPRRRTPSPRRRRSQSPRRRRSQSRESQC

**Q.** With `CC(=O)N[C@@H](C)C(=O)N[C@@H](CO)C(=O)N[C@H](C(=O)N[C@@H](CCC(=O)O)C(=O)N[C@@H](CC(C)C)C(=O)N[C@@H](CC(C)C)C(=O)N[C@@H](CO)C(=O)N[C@@H](Cc1ccccc1)C(=O)N[C@@H](CC(C)C)C(=O)N1CCC[C@H]1C(=O)N[C@@H](CO)C(=O)N[C@@H](CC(=O)O)C(=O)N[C@@H](Cc1ccccc1)C(=O)N[C@@H](Cc1ccccc1)C(=O)N1CCC[C@H]1C(N)=O)C(C)C` as the compound, how does the inhibition read?
**A.** The inhibition was “inactive”.

**Q.** `CC(=O)N[C@@H](Cc1ccc(O)cc1)C(=O)N[C@@H](CCCCN)C(=O)N[C@@H](CCC(=O)O)C(=O)N[C@@H](Cc1ccccc1)C(=O)NCC(=O)N[C@@H](C)C(=O)N[C@@H](CO)C(=O)N[C@H](C(=O)N[C@@H](CCC(=O)O)C(=O)N[C@@H](CC(C)C)C(=O)N[C@@H](CC(C)C)C(=O)N[C@@H](CO)C(=O)N[C@@H](Cc1ccccc1)C(=O)N[C@@H](CC(C)C)C(=O)N1CCC[C@H]1C(N)=O)C(C)C` was tested. Which inhibition did it give?
**A.** The inhibition was “inactive”.

**Q.** With `CC(C)C[C@H](NC(=O)[C@@H](NC(=O)[C@@H](N)CO)[C@@H](C)O)C(=O)N1CCC[C@H]1C(=O)N[C@@H](CCC(=O)O)C(=O)N[C@H](C(=O)N[C@H](C(=O)N[C@H](C(=O)N[C@H](C(=O)N[C@@H](CCCNC(=N)N)C(=O)N[C@@H](CCCNC(=N)N)C(=O)N[C@@H](CCCNC(=N)N)C(=O)NCC(=O)N[C@@H](CCCNC(=N)N)C(=O)N[C@@H](CO)C(N)=O)C(C)C)C(C)C)[C@@H](C)O)[C@@H](C)O` as the compound, how does the inhibition read?
**A.** Its inhibition is “inactive”.

**Q.** With `CC(C)C[C@H](NC(=O)[C@H](CC(C)C)NC(=O)[C@H](CCC(=O)O)NC(=O)[C@@H](NC(=O)[C@H](CO)NC(=O)[C@H](C)N)C(C)C)C(=O)N[C@@H](CO)C(=O)N[C@@H](Cc1ccccc1)C(=O)N[C@@H](CC(C)C)C(=O)N1CCC[C@H]1C(=O)N[C@@H](CO)C(=O)N[C@@H](CC(=O)O)C(=O)N[C@@H](Cc1ccccc1)C(=O)N[C@@H](Cc1ccccc1)C(=O)N1CCC[C@H]1C(N)=O` as the compound, how does the inhibition read?
**A.** Its inhibition is “inactive”.

**Q.** `CC(C)C[C@H](NC(=O)[C@H](CC(C)C)NC(=O)[C@H](CCC(=O)O)NC(=O)[C@@H](NC(=O)[C@H](CO)NC(=O)[C@H](C)NC(=O)CNC(=O)[C@H](Cc1ccccc1)NC(=O)[C@H](CCC(=O)O)NC(=O)[C@H](CCCCN)NC(=O)[C@@H](N)Cc1ccc(O)cc1)C(C)C)C(=O)N[C@@H](CO)C(=O)N[C@@H](Cc1ccccc1)C(=O)N[C@@H](CC(C)C)C(=O)N1CCC[C@H]1C(N)=O` was tested. Which inhibition did it give?
**A.** Its inhibition is “inactive”.

**Q.** How did the inhibition turn out when `CC(C)C[C@H](NC(=O)[C@H](CC(N)=O)NC(=O)[C@H](CO)NC(=O)CNC(=O)[C@@H](NC(=O)[C@@H](N)Cc1c[nH]c2ccccc12)C(C)C)C(=O)N[C@@H](CCC(=O)O)C(=O)N[C@@H](CC(=O)O)C(=O)N1CCC[C@H]1C(=O)N[C@@H](C)C(=O)N[C@@H](CO)C(=O)N[C@@H](CCCNC(=N)N)C(=O)N[C@@H](CCC(=O)O)C(=O)N[C@@H](CC(C)C)C(=O)N[C@H](C(N)=O)C(C)C` was run?
**A.** Its inhibition is “inactive”.

**Q.** `CC(C)C[C@H](NC(=O)[C@H](CCC(=O)O)NC(=O)[C@H](CCCNC(=N)N)NC(=O)[C@H](CO)NC(=O)[C@H](C)NC(=O)[C@@H]1CCCN1C(=O)[C@H](CC(=O)O)NC(=O)[C@H](CCC(=O)O)NC(=O)[C@@H](N)CC(C)C)C(=O)N[C@H](C(=O)N[C@H](C(=O)N[C@@H](CO)C(=O)N[C@@H](Cc1ccc(O)cc1)C(=O)N[C@H](C(=O)N[C@@H](CC(N)=O)C(N)=O)C(C)C)C(C)C)C(C)C` was tested. Which inhibition did it give?
**A.** Its inhibition is “inactive”.

**Q.** With `CC[C@H](C)[C@H](NC(=O)[C@@H](N)CO)C(=O)N[C@@H](CCCNC(=N)N)C(=O)N[C@@H](CC(=O)O)C(=O)N[C@@H](CC(C)C)C(=O)N[C@@H](CC(C)C)C(=O)N[C@@H](CC(=O)O)C(=O)N[C@H](C(=O)N[C@@H](C)C(=O)N[C@@H](CO)C(=O)N[C@@H](C)C(=O)N[C@@H](CC(C)C)C(=O)N[C@@H](Cc1ccc(O)cc1)C(=O)N[C@@H](CCCNC(=N)N)C(=O)N[C@@H](CCC(=O)O)C(N)=O)[C@@H](C)O` as the compound, how does the inhibition read?
**A.** The inhibition was “inactive”.

**Q.** `CC[C@H](C)[C@H](NC(=O)[C@@H]1CCCN1C(=O)[C@H](C)NC(=O)[C@@H](N)CC(N)=O)C(=O)N[C@@H](CC(C)C)C(=O)N[C@@H](CO)C(=O)N[C@H](C(=O)N[C@@H](CC(C)C)C(=O)N1CCC[C@H]1C(=O)N[C@@H](CCC(=O)O)C(=O)N[C@H](C(=O)N[C@H](C(=O)N[C@H](C(=O)N[C@H](C(=O)N[C@@H](CCCNC(=N)N)C(N)=O)C(C)C)C(C)C)[C@@H](C)O)[C@@H](C)O)[C@@H](C)O` was tested. Which inhibition did it give?
**A.** The inhibition was “inactive”.

**Q.** Which inhibition does the source give for `CC[C@H](C)[C@H](NC(=O)[C@H](C)NC(=O)[C@H](CCC(N)=O)NC(=O)[C@@H]1CCCN1)C(=O)N[C@@H](CC(C)C)C(=O)N[C@@H](CS)C(=O)N[C@@H](Cc1c[nH]c2ccccc12)C(=O)NCC(=O)N[C@@H](CCC(=O)O)C(=O)N[C@@H](CC(C)C)C(=O)N[C@@H](CCSC)C(=O)N[C@@H](CC(N)=O)C(=O)N[C@@H](CC(C)C)C(=O)N[C@@H](C)C(=O)N[C@H](C(N)=O)[C@@H](C)O` here?
**A.** Its inhibition is “inactive”.

**Q.** For `CC[C@H](C)[C@H](NC(=O)[C@H](CC(=O)O)NC(=O)[C@@H](N)CCSC)C(=O)N[C@@H](CC(=O)O)C(=O)N1CCC[C@H]1C(=O)N[C@@H](Cc1ccc(O)cc1)C(=O)N[C@@H](CCCCN)C(=O)N[C@@H](CCC(=O)O)C(=O)N[C@@H](Cc1ccccc1)C(=O)NCC(=O)N[C@@H](C)C(=O)N[C@@H](CO)C(=O)N[C@H](C(=O)N[C@@H](CCC(=O)O)C(=O)N[C@@H](CC(C)C)C(N)=O)C(C)C`, which inhibition is on record?
**A.** Its inhibition is “inactive”.

**Q.** `CC[C@H](C)[C@H](NC(=O)[C@H](CC(=O)O)NC(=O)[C@H](CCSC)NC(C)=O)C(=O)N[C@@H](CC(=O)O)C(=O)N1CCC[C@H]1C(=O)N[C@@H](Cc1ccc(O)cc1)C(=O)N[C@@H](CCCCN)C(=O)N[C@@H](CCC(=O)O)C(=O)N[C@@H](Cc1ccccc1)C(=O)NCC(=O)N[C@@H](C)C(=O)N[C@@H](CO)C(=O)N[C@H](C(=O)N[C@@H](CCC(=O)O)C(=O)N[C@@H](CC(C)C)C(N)=O)C(C)C` was tested. Which inhibition did it give?
**A.** Its inhibition is “inactive”.

**Q.** For `CC[C@H](C)[C@H](NC(=O)[C@H](CO)NC(=O)[C@@H]1CCCN1C(=O)[C@H](Cc1ccccc1)NC(=O)[C@H](Cc1ccccc1)NC(=O)[C@H](CC(=O)O)NC(=O)[C@@H](N)CO)C(=O)N[C@@H](CCCNC(=N)N)C(=O)N[C@@H](CC(=O)O)C(=O)N[C@@H](CC(C)C)C(=O)N[C@@H](CC(C)C)C(=O)N[C@@H](CC(=O)O)C(=O)N[C@H](C(=O)N[C@@H](C)C(=O)N[C@@H](CO)C(N)=O)[C@@H](C)O`, which inhibition is on record?
**A.** Its inhibition is “inactive”.

**Q.** How did the inhibition turn out when `CC[C@H](C)[C@H](NC(=O)[C@H](CO)NC(=O)[C@@H]1CCCN1C(=O)[C@H](Cc1ccccc1)NC(=O)[C@H](Cc1ccccc1)NC(=O)[C@H](CC(=O)O)NC(=O)[C@H](CO)NC(=O)[C@@H]1CCCN1C(=O)[C@H](CC(C)C)NC(=O)[C@H](Cc1ccccc1)NC(=O)[C@H](CO)NC(=O)[C@@H](N)CC(C)C)C(=O)N[C@@H](CCCNC(=N)N)C(=O)N[C@@H](CC(=O)O)C(=O)N[C@@H](CC(C)C)C(N)=O` was run?
**A.** The inhibition was “inactive”.

**Q.** Which inhibition does the source give for `CC[C@H](C)[C@H](NC(=O)[C@H](CO)NC(=O)[C@@H]1CCCN1C(=O)[C@H](Cc1ccccc1)NC(=O)[C@H](Cc1ccccc1)NC(=O)[C@H](CC(=O)O)NC(=O)[C@H](CO)NC(=O)[C@@H]1CCCN1C(=O)[C@H](CC(C)C)NC(=O)[C@H](Cc1ccccc1)NC(=O)[C@H](CO)NC(=O)[C@H](CC(C)C)NC(C)=O)C(=O)N[C@@H](CCCNC(=N)N)C(=O)N[C@@H](CC(=O)O)C(=O)N[C@@H](CC(C)C)C(N)=O` here?
**A.** Its inhibition is “inactive”.

**Q.** For `CC[C@H](C)[C@H](NC(=O)[C@H](CO)NC(=O)[C@@H]1CCCN1C(=O)[C@H](Cc1ccccc1)NC(=O)[C@H](Cc1ccccc1)NC(=O)[C@H](CC(=O)O)NC(=O)[C@H](CO)NC(C)=O)C(=O)N[C@@H](CCCNC(=N)N)C(=O)N[C@@H](CC(=O)O)C(=O)N[C@@H](CC(C)C)C(=O)N[C@@H](CC(C)C)C(=O)N[C@@H](CC(=O)O)C(=O)N[C@H](C(=O)N[C@@H](C)C(=O)N[C@@H](CO)C(N)=O)[C@@H](C)O`, which inhibition is on record?
**A.** The inhibition was “inactive”.

**Q.** Which inhibition does the source give for `CC[C@H](C)[C@H](NC(=O)[C@H](Cc1c[nH]c2ccccc12)NC(=O)[C@@H](NC(=O)CNC(=O)[C@H](Cc1ccccc1)NC(=O)[C@@H](N)CO)C(C)C)C(=O)N[C@@H](CCCNC(=N)N)C(=O)N[C@H](C(=O)N1CCC[C@H]1C(=O)N1CCC[C@H]1C(=O)N[C@@H](C)C(=O)N[C@@H](Cc1ccc(O)cc1)C(=O)N[C@@H](CCCNC(=N)N)C(=O)N1CCC[C@H]1C(=O)N1CCC[C@H]1C(N)=O)[C@@H](C)O` here?
**A.** Its inhibition is “inactive”.

**Q.** Which inhibition does the source give for `CC[C@H](C)[C@H](NC(=O)[C@H](Cc1c[nH]cn1)NC(=O)[C@H](Cc1ccccc1)NC(=O)[C@H](Cc1c[nH]c2ccccc12)NC(=O)[C@H](CC(C)C)NC(=O)[C@H](CC(C)C)NC(=O)[C@H](CCC(N)=O)NC(=O)[C@H](CCCNC(=N)N)NC(=O)[C@H](Cc1ccccc1)NC(=O)[C@H](CCCCN)NC(=O)[C@H](CC(C)C)NC(=O)CNC(=O)[C@H](CCSC)NC(=O)[C@H](CC(N)=O)NC(=O)[C@@H](N)C(C)C)C(N)=O` here?
**A.** The inhibition was “inactive”.

**Q.** How did the inhibition turn out when `CSCC[C@H](N)C(=O)N[C@@H](CC(N)=O)C(=O)N[C@@H](CC(C)C)C(=O)N[C@@H](C)C(=O)N[C@H](C(=O)N[C@@H](Cc1c[nH]c2ccccc12)C(=O)N[C@H](C(=O)NCC(=O)N[C@@H](CO)C(=O)N[C@@H](CC(N)=O)C(=O)N[C@@H](CC(C)C)C(=O)N[C@@H](CCC(=O)O)C(=O)N[C@@H](CC(=O)O)C(=O)N1CCC[C@H]1C(=O)N[C@@H](C)C(N)=O)C(C)C)[C@@H](C)O` was run?
**A.** The inhibition was “inactive”.

**Q.** How did the inhibition turn out when `CSCC[C@H](NC(=O)[C@H](CC(C)C)NC(=O)[C@H](CCC(=O)O)NC(=O)CNC(=O)[C@H](Cc1c[nH]c2ccccc12)NC(=O)[C@@H](N)CS)C(=O)N[C@@H](CC(N)=O)C(=O)N[C@@H](CC(C)C)C(=O)N[C@@H](C)C(=O)N[C@H](C(=O)N[C@@H](Cc1c[nH]c2ccccc12)C(=O)N[C@H](C(=O)NCC(=O)N[C@@H](CO)C(=O)N[C@@H](CC(N)=O)C(N)=O)C(C)C)[C@@H](C)O` was run?
**A.** The inhibition was “inactive”.

**Q.** For `CSCC[C@H](NC(=O)[C@H](CC(N)=O)NC(=O)[C@@H](NC(=O)[C@H](CC(N)=O)NC(=O)[C@@H](NC(=O)[C@H](Cc1ccc(O)cc1)NC(=O)[C@H](CO)NC(=O)[C@@H](NC(=O)[C@@H](NC(=O)[C@H](CC(C)C)NC(=O)[C@H](CCC(=O)O)NC(=O)[C@H](CCCNC(=N)N)NC(=O)[C@@H](N)CO)C(C)C)C(C)C)C(C)C)C(C)C)C(=O)NCC(=O)N[C@@H](CC(C)C)C(N)=O`, which inhibition is on record?
**A.** The inhibition was “inactive”.
